Results from US10385378B2, “Method for determining toxic substances by plant gel agar coagulation” (priority 2017, dated 2019).
Values after ≈ are worked out from the molar mass of the structure shown. Where two headings read alike, the source gives them in different places. Each block holds one compound with its values, some of them ahead of it.

How the values were obtained:
[1] = Agar coagulation time with cosmetic materials (3% agar); details: for Agar coagulation time with increase of sample concentration vs control group: FIGS. 2-6, mean±SEM, N=3
Description: The agar gel solution is dissolved to form a clear solution by changing the temperature in the range from a room temperature to 25° C. The agar gel solution is held in a carrier, such as a bottle, or a test tube, and is tilted at about 30°-60° (for example, 45°) from the vertical orientation. The coagulation time is defined when the agar gel solution ceases to flow.
The subject method utilizes a carrier (such as, for example, a test tube) to observe the effect of added cosmetic material to the coagulation of agar, so as to assess the toxicity of cosmetic materials. In this example, the present invention further evaluates the relevance of the cosmetic material toxicity based on the agar coagulation time with the cytotoxic IC50 testing.
The agar was prepared to be used as the main application material (the plant gel material) for the present invention, and a sample was prepared to test the coagulation time of the agar (for 25 samples under study) as described above. For example, the concentrations of agar solutions are 1%, 2%, 3%, 4%, 5%, and 6% (w/w). In one of the examples, 3% agar solution was heated to 100° C. to be dissolved, and then 100 ml or 200 ml of agar solution was added to a bottle or a test tube to be mixed with various samples (100 ml, or 200 ml). The bottle, or the test tube, were tilted about 45° relative to a plane each 30 seconds, to observe whether there is coagulation, and the cooling from 100° C. to room temperature and corresponding coagulation times were recorded.

[2] = Cell viability analysis (MTT) cytotoxicity, B16-F10 cells; details: mouse, B16-F10 cells (ATCC CRL-6475)
Description: (§1) The MTT reagent was reduced to the purple crystalline formazan by the mitochondrial enzyme of surviving cells, and the crystals were dissolved by DMSO (Dimethyl Sulfoxide).
(§2) Subsequently, the absorbance of OD570 nm was measured. The color depth was proportional with the number of viable cells. […] After 3-5 hours, the cells were plated on 96-well plates and added to the sample (100 μl per well). After incubation for 24 hours, the MTT reagent (MTT 5 mg/ml dissolved in PBS) was reacted for 1 to 2 hours. The culture medium in the 96-well dish was blotted with the MTT reagent and dissolved in 100 μl of DMSO. The absorbance values were read at a wavelength of 570 nm with an ELISA kit.

[3] = Cell viability analysis (MTT) cytotoxicity, skin 3T3 cells; details: mouse, skin 3T3 cells (ATCC CCL-92)
Description: as §1, §2

B16-F10 cells [4] = test system: B16-F10 cells
Description: as §1, §2

in vitro [5] = details: mouse
Description: as §1, §2

skin 3T3 cells [6] = test system: skin 3T3 cells
Description: as §1, §2

in vitro [7] = details: mouse; remark: listed apart in the source
Description: as §1, §2

B16-F10 cells [8] = assay: Cell viability analysis (MTT) cytotoxicity, B16-F10 cells; details: MTT, incubation for 24 hours
Description: as §1, §2

skin 3T3 cells [9] = assay: Cell viability analysis (MTT) cytotoxicity, skin 3T3 cells; details: MTT, incubation for 24 hours
Description: as §1, §2

[10] = sample concentration 10 % (w/w)
[11] = sample concentration 20 % (w/w)
[12] = sample concentration 30 % (w/w)
[13] = sample concentration 15 % (w/w)

Compound: Nc1ccc(N)cc1 [p-Phenylenediamine]
- Agar coagulation time with increase of sample concentration vs control group [1]: significantly longer
- Agar coagulation time ([1]; sample concentration 1 % (w/w)): 16.245 ± 0.468 min
- Agar coagulation time ([1]; sample concentration 5 % (w/w)): 22.189 ± 0.782 min
- Agar coagulation time [1, 10]: 27.500 ± 1.073 min
- Agar coagulation time [1, 11]: 39.489 ± 1.572 min
- Agar coagulation time [1, 12]: 52.689 ± 1.982 min

Compound: Cl.NCCCC[C@H](N)C(=O)O [Lysine hydrochloride]
- Agar coagulation time ([1]; sample concentration 1 % (w/w)): 13.241 ± 0.080 min
- Agar coagulation time ([1]; sample concentration 5 % (w/w)): 13.198 ± 0.077 min
- Agar coagulation time [1, 10]: 13.238 ± 0.100 min
- Agar coagulation time [1, 11]: 13.254 ± 0.119 min
- Agar coagulation time [1, 12]: 13.286 ± 0.147 min

Compound: Oc1cccc(O)c1 [Resorcinol]
- Agar coagulation time ([1]; sample concentration 1 % (w/w)): 32.821 ± 0.082 min
- Agar coagulation time ([1]; sample concentration 5 % (w/w)): 238.511 ± 0.101 min
- Agar coagulation time [1, 10]: >4320 min
- Agar coagulation time [1, 11]: >4320 min
- Agar coagulation time [1, 12]: >4320 min
- IC50 at 24 h [2]: 4930 µg/mL (≈ 44.8 mM)
- IC50 at 24 h [3]: 9860 µg/mL (≈ 89.5 mM)

Compound: CCCCCCCCCCCCOS(=O)(=O)O.N [AmmoniumLauryl Sulfate, Ammonium Lauryl Sulfate]
- Agar coagulation time with increase of sample concentration vs control group [1]: significantly longer
- Agar coagulation time ([1]; sample concentration 1 % (w/w)): 16.444 ± 0.477 min
- Agar coagulation time ([1]; sample concentration 5 % (w/w)): 18.811 ± 0.987 min
- Agar coagulation time [1, 10]: 28.372 ± 1.287 min
- Agar coagulation time [1, 13]: 39.572 ± 1.077 min

Compound: CC(O)CCO (centres unmarked) [Butylene Glycol]
- B16-F10 cytotoxicity IC50 (B16-F10 cells [4]): >10000 µg/mL
- IC50 (in vitro [5]): 7320 µg/mL (≈ 81.3 mM)

Compound: CCCCOC(=O)c1ccc(O)cc1 [Butyl Paraben]
- Agar coagulation time ([1]; sample concentration 1 % (w/w)): 13.186 ± 0.080 min
- Agar coagulation time ([1]; sample concentration 5 % (w/w)): 13.210 ± 0.079 min
- Agar coagulation time [1, 10]: 13.182 ± 0.076 min
- Agar coagulation time [1, 11]: 13.141 ± 0.050 min
- Agar coagulation time [1, 12]: 13.238 ± 0.107 min

Compound: O.O.O.O.O.O.O.O.O.[Na+].[Na+].[S-2] [sodium Sulfide-9-Hydrate]
- B16-F10 cytotoxicity IC50 (B16-F10 cells [4]): 4187.1 µg/mL
- Skin cell 3T3 Cytotoxicity IC50 (skin 3T3 cells [6]): >10000 µg/mL

Compound: O.O.O=C([O-])CC(O)(CC(=O)[O-])C(=O)[O-].[Na+].[Na+].[Na+] [Trisodium Citrate Dihydrate]
- B16-F10 cytotoxicity IC50 (B16-F10 cells [4]): 3335.4 µg/mL
- Skin cell 3T3 Cytotoxicity IC50 (skin 3T3 cells [6]): >10000 µg/mL

Compound: Nc1ccccc1O [2-Aminophenol]
- IC50 (in vitro [7]): 39.3 µg/mL (≈ 0.36 mM)
- IC50 (in vitro [5]): 41.2 µg/mL (≈ 0.378 mM)

Compound: Cn1sc(Cl)cc1=O [Methylchloroisothiazolinone]
- B16-F10 cytotoxicity IC50 (B16-F10 cells [4]): 58 µg/mL
- Skin cell 3T3 Cytotoxicity IC50 (skin 3T3 cells [6]): 36.5 µg/mL

Now from value to compound, other results behind:

- Agar coagulation time ([1]; sample concentration 1 % (w/w)): 13.230 ± 0.084 min
- Agar coagulation time ([1]; sample concentration 5 % (w/w)): 13.197 ± 0.066 min
- Agar coagulation time [1, 10]: 13.242 ± 0.087 min
- Agar coagulation time [1, 11]: 13.208 ± 0.100 min
- Agar coagulation time [1, 12]: 13.203 ± 0.090 min
Compound: COC(=O)c1ccc(O)cc1 [methyl p-hydroxybenzate]
- IC50 at 24 h [2]: 4850 µg/mL (≈ 31.9 mM)
- IC50 at 24 h [3]: > 10000 µg/mL

- Agar coagulation time ([1]; sample concentration 1 % (w/w)): 13.200 ± 0.080 min
- Agar coagulation time ([1]; sample concentration 5 % (w/w)): 13.209 ± 0.079 min
- Agar coagulation time [1, 10]: 13.185 ± 0.072 min
- Agar coagulation time [1, 11]: 13.167 ± 0.066 min
- Agar coagulation time [1, 12]: 13.192 ± 0.071 min
Compound: CC(=O)Oc1c(C)c(C)c2c(c1C)CCC(C)(CCC[C@H](C)CCC[C@H](C)CCCC(C)C)O2 (some centres unmarked) [Tocopherol Acetate]
- IC50 at 24 h [2]: > 10000 µg/mL
- IC50 at 24 h [3]: > 10000 µg/mL

- Agar coagulation time ([1]; sample concentration 1 % (w/w)): 18.299 ± 0.078 min
- Agar coagulation time ([1]; sample concentration 5 % (w/w)): 23.378 ± 0.091 min
- Agar coagulation time [1, 10]: 43.302 ± 0.099 min
- Agar coagulation time [1, 11]: 253.306 ± 0.124 min
- Agar coagulation time [1, 12]: >1440 min
Compound: CC(O)C(=O)O (centres unmarked) [Lactic acid]
- Classification harmful / not harmful to skin by agar coagulation time compared with cell survival analysis [1]: harmful to skin
- IC50 at 24 h [2]: 66 µg/mL (≈ 0.733 mM)
- IC50 at 24 h [3]: 30.5 µg/mL (≈ 0.338 mM)

- Agar coagulation time ([1]; sample concentration 1 % (w/w)): 13.193 ± 0.067 min
- Agar coagulation time ([1]; sample concentration 5 % (w/w)): 13.251 ± 0.077 min
- Agar coagulation time [1, 10]: 13.296 ± 0.066 min
- Agar coagulation time [1, 11]: 13.345 ± 0.088 min
- Agar coagulation time [1, 12]: 13.354 ± 0.083 min
Compound: NCCO [Monoethanolamine]
- IC50 at 24 h [2]: 3650 µg/mL (≈ 59.7 mM)

- Agar coagulation time ([1]; sample concentration 1 % (w/w)): 13.260 ± 0.068 min
- Agar coagulation time ([1]; sample concentration 5 % (w/w)): 13.199 ± 0.073 min
- Agar coagulation time [1, 10]: 13.276 ± 0.081 min
- Agar coagulation time [1, 11]: 13.254 ± 0.077 min
- Agar coagulation time [1, 12]: 13.305 ± 0.097 min
Compound: CC(C)CCCC(C)CCCC(C)CCCCC(C)CCCC(C)CCCC(C)C (centres unmarked) [Squalane]
- IC50 at 24 h [2]: 5420 µg/mL (≈ 12.8 mM)
- IC50 at 24 h [3]: > 10000 µg/mL

- Agar coagulation time ([1]; sample concentration 1 % (w/w)): 18.406 ± 0.121 min
- Agar coagulation time ([1]; sample concentration 5 % (w/w)): 30.544 ± 0.139 min
- Agar coagulation time [1, 10]: 91.139 ± 0.257 min
- Agar coagulation time ([1]; sample concentration 17.5 % (w/w)): >1440 min
Compound: OO [Hydrogen Peroxide]
- Classification harmful / not harmful to skin by agar coagulation time compared with cell survival analysis [1]: harmful to skin
- IC50 at 24 h [2]: 48.9 µg/mL (≈ 1.44 mM)
- IC50 at 24 h [3]: 63.7 µg/mL (≈ 1.87 mM)

- Agar coagulation time ([1]; sample concentration 1 % (w/w)): 13.153 ± 0.056 min
- Agar coagulation time ([1]; sample concentration 5 % (w/w)): 13.186 ± 0.069 min
- Agar coagulation time [1, 10]: 13.185 ± 0.066 min
- Agar coagulation time [1, 11]: 13.172 ± 0.065 min
- Agar coagulation time [1, 12]: 13.206 ± 0.087 min
Compound: CCCCCCCCCCCCCC(=O)OC(C)C [Isopropyl Myristate]
- IC50 at 24 h [2]: > 10000 µg/mL
- IC50 at 24 h [3]: > 10000 µg/mL

- Agar coagulation time ([1]; sample concentration 1 % (w/w)): 13.220 ± 0.081 min
- Agar coagulation time ([1]; sample concentration 5 % (w/w)): 13.228 ± 0.053 min
- Agar coagulation time [1, 10]: 13.333 ± 0.087 min
- Agar coagulation time [1, 11]: 13.265 ± 0.067 min
- Agar coagulation time [1, 12]: 13.322 ± 0.091 min
Compound: OCC(O)CO [Glycerin]

- Agar coagulation time ([1]; sample concentration 1 % (w/w)): 13.210 ± 0.087 min
- Agar coagulation time ([1]; sample concentration 5 % (w/w)): 13.221 ± 0.091 min
- Agar coagulation time [1, 10]: 13.144 ± 0.068 min
- Agar coagulation time [1, 11]: 13.219 ± 0.093 min
- Agar coagulation time [1, 12]: 13.184 ± 0.063 min
Compound: O=C(O)c1ccccc1O [Salicylic Acid]
- IC50 at 24 h [2]: 414 µg/mL (≈ 3 mM)
- IC50 at 24 h [3]: 1390 µg/mL (≈ 10.1 mM)

- Agar coagulation time ([1]; sample concentration 1 % (w/w)): 14.356 ± 0.097 min
- Agar coagulation time ([1]; sample concentration 5 % (w/w)): 20.422 ± 0.106 min
- Agar coagulation time [1, 10]: 43.333 ± 0.112 min
- Agar coagulation time [1, 13]: 87.784 ± 0.176 min
Compound: Disodium Lauroamphodiacetate
- Classification harmful / not harmful to skin by agar coagulation time compared with cell survival analysis [1]: harmful to skin
- B16-F10 cytotoxicity IC50 (B16-F10 cells [8]): 72.8 µg/mL
- Skin cell 3T3 Cytotoxicity IC50 (skin 3T3 cells [9]): 55.6 µg/mL

- Agar coagulation time ([1]; sample concentration 1 % (w/w)): 16.489 ± 0.475 min
- Agar coagulation time ([1]; sample concentration 5 % (w/w)): 20.455 ± 0.968 min
- Agar coagulation time [1, 10]: 24.478 ± 1.280 min
- Agar coagulation time [1, 11]: 43.671 ± 0.886 min
- Agar coagulation time [1, 12]: 67.444 ± 1.687 min
Compound: Nc1cccc(O)c1 [3-Aminophenol]
- IC50 at 24 h [2]: 126 µg/mL (≈ 1.16 mM)
- IC50 at 24 h [3]: 308 µg/mL (≈ 2.82 mM)
